Test results reported in ChEMBL document CHEMBL1134277, “N-[3-(2-Dimethylaminoethyl)-2-methyl-1H- indol-5-yl]-4-fluorobenzamide: a potent, selective, and orally active 5-HT(1F) receptor agonist potentially useful for migraine therapy” (J Med Chem, 2001).

Legend:
[1] = Selectivity is the binding affinity towards human 5-HT1D receptor to that of human 5-HT1F receptor
[2] = Selectivity is the binding affinity towards human 5-HT1B receptor to that of human 5-HT1F receptor
[3] = target: T1, 5-hydroxytryptamine receptor 1F (Homo sapiens, UniProt P30939); assay: Binding affinity towards human 5-hydroxytryptamine 1F receptor
T1 sequence (P30939 whole entry): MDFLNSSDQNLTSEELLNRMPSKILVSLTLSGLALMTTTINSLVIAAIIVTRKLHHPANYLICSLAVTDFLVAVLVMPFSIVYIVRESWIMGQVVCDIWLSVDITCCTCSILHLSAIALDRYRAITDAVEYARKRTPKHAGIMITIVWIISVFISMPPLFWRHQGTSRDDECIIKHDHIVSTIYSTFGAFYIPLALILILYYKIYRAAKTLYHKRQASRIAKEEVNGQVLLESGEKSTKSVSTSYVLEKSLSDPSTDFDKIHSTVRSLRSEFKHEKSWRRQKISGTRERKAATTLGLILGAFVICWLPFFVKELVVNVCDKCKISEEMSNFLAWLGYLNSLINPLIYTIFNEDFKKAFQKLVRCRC

[4] = Selectivity is the binding affinity towards human 5-HT1A receptor to that of human 5-HT1F receptor
[5] = target: T2, 5-hydroxytryptamine receptor 1F (Homo sapiens) (UniProt P30939); assay: In vitro agonist potency against human 5-hydroxytryptamine 1F receptor; assay type: functional
T2 sequence (whole entry): T1 sequence (P30939 whole entry)

`CN(C)CCc1c[nH]c2cccc(NC(=O)c3ccc(F)cc3)c12` gave a Selectivity [1] of 3, a Selectivity [2] of 9 and a Ki [3] of 3.8 nM. It also gave a Selectivity [4] of 3.

`CNS(=O)(=O)Cc1ccc2[nH]cc(CCN(C)C)c2c1` gave an Emax [5] of 98%.
